Experimental data reported in the supplement of paper PMC10307832.

What was measured:
Assay in all cases: relative viability (nuclei count vs DMSO), 5 days (fraction); higher = more cells survive
[1] = system: NCI-H2347
Procedure, shortened: (§1)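 Relative viability equals treated-well nuclei counts divided by vehicle-well nuclei counts. Counts came from 4× images of lung cancer cell lines grown in 1536-well plates for 5 days after pin-tool dosing on the day after seeding. Dosing used one drug alone or a fixed anchor-drug dose plus five library-drug doses (not always all listed) in √10 steps, and values are medians of duplicate plates.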

[2] = system: HCC-44
Procedure, shortened: as §1

[3] = system: 201T
Procedure, shortened: as §1

[4] = system: LK-2
Procedure, shortened: as §1

[5] = system: NCI-H460
Procedure, shortened: as §1

[6] = system: NCI-H838
Procedure, shortened: as §1

[7] = system: LCLC-103H
Procedure, shortened: as §1

[8] = system: NCI-H650
Procedure, shortened: as §1

[9] = system: PC-14
Procedure, shortened: as §1

[10] = system: NCI-H1793
Procedure, shortened: as §1

[11] = system: H3255
Procedure, shortened: as §1

[12] = system: NCI-H1944
Procedure, shortened: as §1

[13] = system: PC-3 [JPC-3]
Procedure, shortened: as §1

[14] = system: A-427
Procedure, shortened: as §1

[15] = system: SW 900
Procedure, shortened: as §1

[16] = system: LU99A
Procedure, shortened: as §1

[17] = system: LCLC-97TM1
Procedure, shortened: as §1

[18] = system: NCI-H727
Procedure, shortened: as §1

[19] = system: NCI-H23
Procedure, shortened: as §1

**Q.** Which relative viability ([1]; first compound 0.005 µM) does the source give for `CC1(C)CCC(c2ccc(Cl)cc2)=C(CN2CCN(c3ccc(C(=O)NS(=O)(=O)c4ccc(N[C@H](CCN5CCOCC5)CSc5ccccc5)c(S(=O)(=O)C(F)(F)F)c4)cc3)CC2)C1` [Navitoclax] + NC(=O)Nc1cc(-c2cccc(F)c2)sc1C(=O)N[C@H]1CCCNC1 [AZD7762] (partner 0.2 µM) here?
**A.** 0.809

**Q.** And the relative viability ([1]; first compound 0.01581 µM)?
**A.** 0.594

**Q.** What about the relative viability ([1]; first compound 0.05 µM) of the same compound?
**A.** 0.579

**Q.** And the relative viability ([1]; first compound 0.1581 µM)?
**A.** 0.685

**Q.** What about the relative viability ([1]; first compound 0.5 µM) of the same compound?
**A.** 0.579

**Q.** And the relative viability ([2]; first compound 0.005 µM)?
**A.** 0.935

**Q.** And the relative viability ([2]; first compound 0.01581 µM)?
**A.** 0.957

**Q.** And the relative viability ([2]; first compound 0.05 µM)?
**A.** 0.961

**Q.** And the relative viability ([2]; first compound 0.1581 µM)?
**A.** 0.915

**Q.** And the relative viability ([2]; first compound 0.5 µM)?
**A.** 0.881

**Q.** And the relative viability ([3]; first compound 0.005 µM)?
**A.** 0.656

**Q.** And the relative viability ([3]; first compound 0.01581 µM)?
**A.** 0.656

**Q.** What about the relative viability ([3]; first compound 0.05 µM) of the same compound?
**A.** 0.41

**Q.** And the relative viability ([3]; first compound 0.1581 µM)?
**A.** 0.565

**Q.** And the relative viability ([3]; first compound 0.5 µM)?
**A.** 0.504

**Q.** And the relative viability ([4]; first compound 0.005 µM)?
**A.** 0.593

**Q.** And the relative viability ([4]; first compound 0.01581 µM)?
**A.** 0.567

**Q.** And the relative viability ([4]; first compound 0.05 µM)?
**A.** 0.295

**Q.** What about the relative viability ([4]; first compound 0.1581 µM) of the same compound?
**A.** 0.358

**Q.** What about the relative viability ([4]; first compound 0.5 µM) of the same compound?
**A.** 0.351

**Q.** And the relative viability ([5]; first compound 0.005 µM)?
**A.** 0.575

**Q.** What about the relative viability ([5]; first compound 0.01581 µM) of the same compound?
**A.** 0.622

**Q.** And the relative viability ([5]; first compound 0.05 µM)?
**A.** 0.322

**Q.** And the relative viability ([5]; first compound 0.1581 µM)?
**A.** 0.573

**Q.** What about the relative viability ([5]; first compound 0.5 µM) of the same compound?
**A.** 0.532

**Q.** What about the relative viability ([6]; first compound 0.005 µM) of the same compound?
**A.** 0.971

**Q.** What about the relative viability ([6]; first compound 0.01581 µM) of the same compound?
**A.** 0.869

**Q.** What about the relative viability ([6]; first compound 0.05 µM) of the same compound?
**A.** 0.937

**Q.** And the relative viability ([6]; first compound 0.1581 µM)?
**A.** 0.97

**Q.** And the relative viability ([6]; first compound 0.5 µM)?
**A.** 0.957

**Q.** And the relative viability ([7]; first compound 0.005 µM)?
**A.** 0.806

**Q.** And the relative viability ([7]; first compound 0.01581 µM)?
**A.** 0.839

**Q.** And the relative viability ([7]; first compound 0.05 µM)?
**A.** 0.736

**Q.** What about the relative viability ([7]; first compound 0.1581 µM) of the same compound?
**A.** 0.826

**Q.** And the relative viability ([7]; first compound 0.5 µM)?
**A.** 0.8

**Q.** What about the relative viability ([8]; first compound 0.005 µM) of the same compound?
**A.** 0.946

**Q.** And the relative viability ([8]; first compound 0.01581 µM)?
**A.** 1.12

**Q.** And the relative viability ([8]; first compound 0.05 µM)?
**A.** 1.13

**Q.** And the relative viability ([8]; first compound 0.1581 µM)?
**A.** 0.801

**Q.** And the relative viability ([8]; first compound 0.5 µM)?
**A.** 0.937

**Q.** What about the relative viability ([9]; first compound 0.005 µM) of the same compound?
**A.** 0.326

**Q.** And the relative viability ([9]; first compound 0.01581 µM)?
**A.** 0.413

**Q.** And the relative viability ([9]; first compound 0.05 µM)?
**A.** 0.255

**Q.** What about the relative viability ([9]; first compound 0.1581 µM) of the same compound?
**A.** 0.322

**Q.** What about the relative viability ([9]; first compound 0.5 µM) of the same compound?
**A.** 0.325

**Q.** What about the relative viability ([10]; first compound 0.005 µM) of the same compound?
**A.** 0.488

**Q.** And the relative viability ([10]; first compound 0.01581 µM)?
**A.** 0.613

**Q.** What about the relative viability ([10]; first compound 0.1581 µM) of the same compound?
**A.** 0.402

**Q.** And the relative viability ([10]; first compound 0.5 µM)?
**A.** 0.246

**Q.** What about the relative viability ([11]; first compound 0.005 µM) of the same compound?
**A.** 0.891

**Q.** And the relative viability ([11]; first compound 0.01581 µM)?
**A.** 1.03

**Q.** What about the relative viability ([11]; first compound 0.05 µM) of the same compound?
**A.** 0.851

**Q.** And the relative viability ([11]; first compound 0.1581 µM)?
**A.** 0.922

**Q.** What about the relative viability ([11]; first compound 0.5 µM) of the same compound?
**A.** 0.805

**Q.** And the relative viability ([12]; first compound 0.005 µM)?
**A.** 0.52

**Q.** And the relative viability ([12]; first compound 0.01581 µM)?
**A.** 0.637

**Q.** And the relative viability ([12]; first compound 0.1581 µM)?
**A.** 0.489

**Q.** And the relative viability ([12]; first compound 0.5 µM)?
**A.** 0.582

**Q.** And the relative viability ([13]; first compound 0.005 µM)?
**A.** 0.726

**Q.** And the relative viability ([13]; first compound 0.01581 µM)?
**A.** 0.972

**Q.** What about the relative viability ([13]; first compound 0.05 µM) of the same compound?
**A.** 0.483

**Q.** What about the relative viability ([13]; first compound 0.1581 µM) of the same compound?
**A.** 0.702

**Q.** And the relative viability ([13]; first compound 0.5 µM)?
**A.** 0.759

**Q.** What about the relative viability ([14]; first compound 0.005 µM) of the same compound?
**A.** 0.79

**Q.** And the relative viability ([14]; first compound 0.01581 µM)?
**A.** 0.822

**Q.** And the relative viability ([14]; first compound 0.05 µM)?
**A.** 0.639

**Q.** What about the relative viability ([14]; first compound 0.1581 µM) of the same compound?
**A.** 0.722

**Q.** And the relative viability ([14]; first compound 0.5 µM)?
**A.** 0.718

**Q.** And the relative viability ([15]; first compound 0.005 µM)?
**A.** 0.538

**Q.** And the relative viability ([15]; first compound 0.01581 µM)?
**A.** 0.651

**Q.** What about the relative viability ([15]; first compound 0.1581 µM) of the same compound?
**A.** 0.573

**Q.** And the relative viability ([15]; first compound 0.5 µM)?
**A.** 0.476

**Q.** What about the relative viability ([16]; first compound 0.005 µM) of the same compound?
**A.** 0.414

**Q.** And the relative viability ([16]; first compound 0.01581 µM)?
**A.** 0.466

**Q.** And the relative viability ([16]; first compound 0.1581 µM)?
**A.** 0.43

**Q.** What about the relative viability ([16]; first compound 0.5 µM) of the same compound?
**A.** 0.439

**Q.** What about the relative viability ([17]; first compound 0.005 µM) of the same compound?
**A.** 0.236

**Q.** And the relative viability ([17]; first compound 0.01581 µM)?
**A.** 0.301

**Q.** And the relative viability ([17]; first compound 0.05 µM)?
**A.** 0.181

**Q.** What about the relative viability ([17]; first compound 0.1581 µM) of the same compound?
**A.** 0.253

**Q.** And the relative viability ([17]; first compound 0.5 µM)?
**A.** 0.22

**Q.** And the relative viability ([18]; first compound 0.005 µM)?
**A.** 0.656

**Q.** And the relative viability ([18]; first compound 0.01581 µM)?
**A.** 0.595

**Q.** And the relative viability ([18]; first compound 0.05 µM)?
**A.** 0.539

**Q.** What about the relative viability ([18]; first compound 0.1581 µM) of the same compound?
**A.** 0.674

**Q.** What about the relative viability ([18]; first compound 0.5 µM) of the same compound?
**A.** 0.594

**Q.** What about the relative viability ([19]; first compound 0.005 µM) of the same compound?
**A.** 0.28

**Q.** What about the relative viability ([19]; first compound 0.01581 µM) of the same compound?
**A.** 0.33

**Q.** What about the relative viability ([19]; first compound 0.05 µM) of the same compound?
**A.** 0.291

**Q.** What about the relative viability ([19]; first compound 0.1581 µM) of the same compound?
**A.** 0.195

**Q.** What about the relative viability ([19]; first compound 0.5 µM) of the same compound?
**A.** 0.23
